Earlier results as cited in patent publication US6733485B1, “Microstimulator-based electrochemotherapy methods and systems” (Advanced Bionics Corporation, priority 2001, dated 2004).
Counter-ions that a name gives are not always drawn. Like-named read-outs stand apart in the source and are kept apart here.

Key:
[1] = tested on: rat and human glioma cells
[2] = tested on: metastatic lesion of oral fibrosarcoma
[3] = tested on: malignant melanoma skin metastases
[4] = tested on: subcutaneously established colorectal tumor
[5] = tested on: permeation nodules of head and neck squamous cell carcinomas
[6] = tested on: HNSCC permeation nodules, salivary cancer, and breast cancer; settings: electrochemotherapy
[7] = tested on: subcutaneous metastasis of hypernephroma; settings: three sessions over four weeks, electric pulses 10 minutes after intravenous injection
[8] = in vitro, administered along with electrical stimulation
[9] = tested on: cutaneous and subcutaneous tumors
[10] = tested on: multicellular prostate tumor spheroids; settings: DC electrical field 500 V/m for 90 seconds

## COc1cc([C@@H]2c3cc4c(cc3[C@@H](O[C@@H]3O[C@@H]5CO[C@@H](C)O[C@H]5[C@H](O)[C@H]3O)[C@H]3COC(=O)[C@H]23)OCO4)cc(OC)c1O [etoposide]
[1]
  enhancement of cytotoxicity by electric stimulation: no electrochemotherapy enhancement

## O=P1(N(CCCl)CCCl)NCCCO1 (centres unmarked) [cyclophosphamide]
[2]; cyclophosphamide injection alone
  effect on tumor growth: no significant suppressive effect
[2]; intraperitoneal injection followed by local electric pulses, several days after treatment
  tumor size: markedly reduced in size

## CC[C@]1(O)C[C@H]2CN(CCc3c([nH]c4ccccc34)[C@@](C(=O)OC)(c3cc4c(cc3OC)N(C=O)[C@H]3[C@@](O)(C(=O)OC)[C@H](OC(C)=O)[C@]5(CC)C=CCN6CC[C@]43[C@@H]65)C2)C1 [vincristine]
[1]
  enhancement of cytotoxicity by electric stimulation: no electrochemotherapy enhancement

## N.N.O=C([O-])C1(C(=O)[O-])CCC1.[Pt+2] [carboplatin]
[1]; carboplatin: high dose
  enhancement of cytotoxicity by electric stimulation: only slightly enhanced

## N.N.[Cl][Pt][Cl] [cisplatin]
Tumors in mice; all time points tested
  platinum bound to DNA, electrochemotherapy versus cisplatin treated tumors: Approximately two
Tumors in mice; cisplatin treatment without electric pulses, intratumoral 1-8 mg/kg
  tumor growth delay: up to 20 days
Tumors in mice; electrochemotherapy, 4 mg/kg, eight pulses 100 μsec, 1 Hz, 1040 V
  tumor cures (local tumor control plateau): 67%
[3]; chemotherapy-treated nodules (cisplatin alone)
  median time to progression: four
[3]; cisplatin alone, 18 nodules
  tumor nodules responded: 22%
[3]; electrochemotherapy, four weeks after treatment, 27 nodules
  tumor nodules responded: 48%
[3]; electrochemotherapy-treated nodules
  median time to progression: 21 weeks

## bleomycin
Human T98G glioma cells; 8 cycles, 1 Hz square wave, 100 μsecond, 1000 V/cm
  increase of toxicity of bleomycin by electric stimulation: more than 1000 fold
Human T98G glioma cells; bleomycin concentration 100 pg/ml
  increase of toxicity at reduced bleomycin concentration: This increase disappeared
[4]; intratumoral, intravenous or intraperitoneal, 1/50 to 1/2 of LD50, 500 to 2,000 V/cm
  tumor development: Significant suppression of tumor development and even some cures
[4]; lowest dose of bleomycin and lowest electric field intensity, repeated
  cures on repeated electrochemotherapy: complete cures of colorectal cancer were achieved in all animals
[5]; 10 mg/m^2 intravenous bolus plus electric pulses, eight patients
  side effects: Neither local nor general side effects were observed
[5]; 10 mg/m^2 intravenous bolus, then 4 or 8 cycles of 100 μsec pulses at 1300 V/cm, 40 nodules, within a few days
  nodules with clinical complete response: 57%
[6]
  effectiveness after intraarterial or intranodular injection: effective
[6]; seven patients
  antitumor effects: Clear antitumor effects were obtained
[7]
  time for which tumor volume was stabilized: 12 months
[8]
  factor by which the dose of bleomycin can be reduced: 100-5000
[9]; bleomycin only, no electric pulses
  complete responses in nodules: No complete responses
[9]; bleomycin plus 6-8 pulses, 1300 V/cm, 34 patients
  patients responding to the treatment: All patients responded
[9]; bleomycin plus electric pulses
  nodules with complete responses: 91%
  side effects: no significant side effects were noted
[9]; bleomycin plus electric pulses, within 12 weeks
  metastatic nodules or primary tumors with responses: 142 of 143

## COc1cccc2c1C(=O)c1c(O)c3c(c(O)c1C2=O)C[C@@](O)(C(=O)CO)C[C@@H]3O[C@H]1C[C@H](N)[C@H](O)[C@H](C)O1 [doxorubicin]
[10]
  uptake of doxorubicin: did increase their uptake of doxorubicin

## Cc1ncc(CNC(=O)N(CCCl)N=O)c(N)n1 [nimustine hydrochloride]
[1]; carboplatin: high dose
  enhancement of cytotoxicity by electric stimulation: no electrochemotherapy enhancement
